Data: US20080220416A1, “Compositions for Inhibiting Cell Growth and Inducing Apoptosis in Cancer Cells and Methods of Use Thereof” (THE BOARD OF TRUSTEES OF THE UNIVERSITY OF ILLINOI, priority 2004, published 2008)
pIC50: −log10 of the molar value. Square brackets hold non-standard residues; d marks the D form. Peptide text beside a SMILES is read from it. * marks the point of attachment. Nle = CCCC[C@H](N)C(=O)O; Cbz = O=C(OCc1ccccc1)*

Tested on: CaSki human cervical cancer cells
Experiment: Cell growth inhibition assay in CaSki cervical cancer cells (crystal violet)
Assay type: cell-based
Protocol: The cell growth inhibition assay was performed in a 96-well plate format. Inhibition was assessed by monitoring the protein content in each well using the crystal violet staining method as described by Skehan et al., 1990, J Natl Cancer Inst 82:1107-1112 and Prochaska et al., 1988, Anal Biochem 169:328-336. Briefly, cells were plated at a density of 2×10^4 cells/ml in 200 μl of DMEM supplemented with 10% FBS. The cells were transfected with siRNAs ([…] siRNA oligos/well) using Oligofectamine Transfection Reagents (InVitrogen) according to manufacturer's instructions. Twenty-four hours post-transfection, the media was decanted, 190 μl of fresh media was added to each well, and 10 μl of cisplatin (4 mM) dissolved in 10% DMSO was added to the wells as a series 2-fold dilutions (final concentration of cisplatin in the wells ranged from 0.5-200 μM). The cells were incubated with cisplatin for 48 hrs, the media was decanted, and the cells were submerged with 200 μl of 0.2% crystal violet in 2% ethanol for 10 min. The plates were rinsed for 2 min with tap water. The bound dye was solublized by incubation at 37° C. for 1 h with 200 μl of 0.5% sodium dedecyl sulfate in 50% ethanol. The plates were then scanned with an ELISA reader at 562 nm. The percentage cell growth inhibition mediated by cisplatin was calculated as: % inhibition=[1-(OD of cisplatin-treated cells/OD DMSO-treated control cells)]×100/100.
CaSki human cervical cancer cells treated for 48 hrs with z-Leu-Leu-Nle-CHO alone were tested for cell growth inhibition. The cell growth inhibition assay was performed in a 96-well plate format. Inhibition was assessed by monitoring the protein content in each well using the crystal violet staining method Skehan, P. et al., 1990, J Natl Cancer Inst 82:1107-1112. Briefly, cells were plated at a density of 2×10^4 cells/ml in 200 μl of DMEM supplemented with 10% FBS. After pre-incubation period of 24 h, the media was decanted, 190 μl of fresh media was added to each well, and 10 μl (150 μM) of z-Leu-Leu-Nle-CHO dissolved in 10% DMSO was added to the wells as a series 2-fold dilutions (final concentration of cisplatin in the wells ranged from 0.05-7.5 μM). The cells were incubated with z-Leu-Leu-Nle-CHO for 48 hrs, the media was decanted, and the cells were submerged with 200 μl of 0.2% crystal violet in 2% ethanol for 10 min. The plates were rinsed for 2 min with tap water. The bound dye was solublized by incubation at 37° C. for 1 h with 200 μl of 0.5% sodium dedecyl sulfate in 50% ethanol. The plates were then scanned with an ELISA reader at 562 nm. The percentage cell growth inhibition mediated by test agents was calculated as: % inhibition=[1-(OD of z-Leu-Leu-Nle-CHO-treated cells/OD DMSO-treated control cells)]×100/100.
To determine whether z-Leu-Leu-Nle-CHO treatment potentiates the effect of cisplatin on human […] cancer cells, the CaSki cells were treated for 48 h with 0.1-0.8 μM z-Leu-Leu-Nle-CHO and various concentrations of cisplatin (2-fold dilutions of a cisplatin solution to produce final concentrations of 1.6-200 μM cisplatin). Following the z-Leu-Leu-Nle-CHO and cisplatin treatment, the cells were tested for growth inhibition as described above.
Isobologram analysis was performed by measuring the IC50 values of cisplatin in the presence of various concentrations of z-Leu-Leu-Nle-CHO. These IC50 values were plotted with SigmaPlot, and a straight line was traced between the IC50 values of cells treated with either cisplatin or z-Leu-Leu-Nle-CHO alone.

pIC50 (Homo sapiens, Ca-Ski, alone, 48 hrs, read-out: IC50, cell growth inhibition)	Molecule	effect on cisplatin cell growth inhibition (0.1-0.8 μM, doses lower than IC50, 48 h)	isobologram analysis with cisplatin (especially at low cisplatin concentrations (1-50 μM))	effect on cytotoxicity of cisplatin (siRNA 24 h before cisplatin)
6.19	CCCC[C@@H](C=O)NC(=O)[C@H](CC(C)C)NC(=O)[C@H](CC(C)C)NC(=O)OCc1ccccc1 [z-Leu-Leu-Nle-CHO, N-benzyloxycarbonyl-leucyl-leucyl-norleucinal] (Cbz-Leu-Leu-[Nle]-aldehyde)	potentiated the effects of cisplatin	moderate synergism	–
–	5′-AAGTGTCTGAGGCCAGCAAGA-3′ [Notch-1 siRNA]	–	–	strikingly potentiated the cytotoxicity of cisplatin
